# How the values were obtained:
# [1] = tested on: normal mice and SART stress mice; test: Analgesic effect, tail pressure method (Randall-Selitto's device); type: in vivo, mice (ddY-strain male); conditions: for change in vivo at 100 mg/kg / change in vivo at 160 mg/kg: Mus musculus; for change in vivo at 160 mg/kg: peroral 160 mg/kg
# Method in brief: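 Randall-Selitto tail pressure threshold measured 60 min after intraperitoneal dosing, expressed as post/pre-dose pressure ratio versus vehicle control (0.5% CMC-Na or 0.5% Tween 80, 10 ml/kg). For oral dosing, mean of readings at 30, 60, 90 and 120 min used.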
# Wistar-strain male rats = test: Antiulcerogenic effect on Shay's ulcer (operative ulcer); type: in vivo; conditions: 10 times
# Protocol: 6.2. Antiulcerogenic effect on Shay's ulcer (operative ulcer):
# Tests were carried out by using groups of rats each comprising 5-10 Wistar-strain male rats according to Shay method [Shay Harry; Gastroenterology,; 5, 43 (1945)]. Ulcers in the anterior stomach were classified on the following basis:
# 2. 1-5 small ulcers (diameter of less than 3 mm)
# 3. 6 or more small ulcers or one big ulcer (diameter of more than 3 mm)
# 4. two or more big ulcers
# [2] = tested on: spontaneously hypertensive rats (SHR); test: Antihypertensive effect in spontaneously hypertensive rats; type: in vivo; conditions: 60 minutes
# Protocol: 8. Antihypertensive effect: Groups of rats each comprising 6-9 spontaneously hypertensive rats (SHR) were used. The compounds of the present invention or DPH was given intraperitoneally. The rate of antihypertension 60 minutes after the administration was determined.
# dd-strain male mice [3] = test: Antiulcerogenic effect on Takagi's restraint-plus-water-immersing ulcer; type: in vivo; conditions: Mus musculus, ip; for inhibition in vivo at 75 mg/kg: 75 mg/kg intraperitoneal; for inhibition in vivo at 125 mg/kg: 125 mg/kg intraperitoneal
# Protocol: 6.1 Antiulcerogenic effect on Takagi's restraint-plus-water-immersing ulcer: Groups each comprising 8-26 dd-strain male mice were used. The tests were carried out according to a method of Takagi, et al. [Chem. Pharm. Bull.; 12, 465 (1964)]. Sum of length of diseased parts in the glandular stomach was measured and it was compared with that of control group. The compounds of the present invention or DPH was given intraperitoneally immediately before the restraint and immersion in water.
# [4] = Acute toxicity test (LD50, Litchfield-Wilcoxon), rats; conditions: rat, in vivo, ip, intraperitoneal
# Protocol: (§1) Toxicity tests were carried out by intraperitoneal administration of the compound of the present invention to groups each comprising 10 ICR-strain mice and SD-strain rats. LD50 was calculated by the Litchfield-Wilcoxon method based on the number of death 72 hours after the administration.
# [5] = tested on: normal mice and SART stress mice; test: Analgesic effect, D'Amour-Smith method; type: in vivo, mice (ddY-strain male); conditions: for responders at 100 mg/kg / responders at 160 mg/kg: Mus musculus; for responders at 160 mg/kg: peroral 160 mg/kg; for Analgesic effect: peroral 50 mg/kg
# Method in brief: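 ddY male normal mice and mice under 4-day SART stress (n=10/group); black-inked tail root irradiated with infrared rays (up to 15 s cutoff), escape latency recorded. Effect expressed as proportion of mice whose mean latency at 30, 60, 90 and 120 min post-dose was at least 2× pre-dose latency.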
# dd-strain male mice [6] = test: Inhibitory effect on spontaneous motor activities (Animex method); type: in vivo; conditions: after 60 minutes
# Protocol: 4.1 Inhibitory effect on spontaneous motor activities:
# Groups each comprising 8-16 dd-strain male mice were used. The compounds of the present invention were given intraperitoneally. After 60 minutes, spontaneous motor activities for 15 minutes were measured by the Animex method.
# [7] = Acute toxicity test (LD50, Litchfield-Wilcoxon), mice; conditions: mouse, in vivo, ip, intraperitoneal
# Protocol: as §1
# [8] = tested on: normal mice and SART stress mice; test: Analgesic effect, acetic acid writhing method; type: in vivo; conditions: Mus musculus, sc, 100 mg/Kg subcutaneously
# Method in brief: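 Normal mice and mice after 8 days of SART stress (5 per group) received 100 mg/Kg compound subcutaneously. Writhing was then induced with 0.7% acetic acid in isotonic saline, 0.1 ml/10 g i.p. Writhes were counted over 15 minutes and compared with control mice.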
# ddY-strain male mice = test: Effect of prolongation of sleeping time (hexobarbital); type: in vivo; conditions: for change in vivo at 100 mg/kg / change in vivo at 300 mg/kg: Mus musculus, ip; for change in vivo at 100 mg/kg: 100 mg/kg intraperitoneal; for change in vivo at 300 mg/kg: 300 mg/kg intraperitoneal
# Method in brief: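 Groups of 10 male ddY mice received compounds intraperitoneally along with intraperitoneal sodium hexobarbital. Loss of righting reflex was timed, and prolongation was measured against control mice.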
# isolated duodenum = test: Recovery of acetylcholine sensitivity of isolated duodenum of SART stress mice (Magnus method); type: in vivo, mice (dd-strain male); conditions: 6th day, Ach 10^-7 g/ml, Average ± S.E.
# From the text: SART stress animals used in the tests described below were raised according to a method of Kita, et al. [Folia Pharmacol. Japan.: 71, 195-210 (1975)].
# 3. Effect of recovering acetylcholine (Ach) sensitivity of isolated intestinal tract:
# Groups each comprising at least 10 dd-strain male mice were used. The compounds of the present invention or other comparative drugs were given intraperitoneally once a day during the stress-causing operation. On the 6th day, Ach (10^-7 g/ml.) sensitivity of isolated duodenum was examined using the Magnus method.
# [9] = ip, 1 h, SART stress mice, intraperitoneal 100 mg/kg, 60 minutes
# [10] = ip, 1 h, normal mice, intraperitoneal 100 mg/kg, 60 minutes
# [11] = po, SART stress mice, peroral 100 mg/kg, average of 30, 60, 90 and 120 minutes
# [12] = po, SART stress mice, average of 30, 60, 90 and 120 minutes
# [13] = po, normal mice, peroral 100 mg/kg, average of 30, 60, 90 and 120 minutes
# [14] = po, normal mice, average of 30, 60, 90 and 120 minutes
# [15] = SART stress mice, intraperitoneal 50 mg/kg, 60 minutes
# [16] = normal mice, intraperitoneal 50 mg/kg, 60 minutes
# [17] = ip, SART stress mice, intraperitoneal 100 mg/kg
# [18] = ip, normal mice, intraperitoneal 100 mg/kg
# [19] = po, SART stress mice, peroral 100 mg/kg
# [20] = po, normal mice, peroral 100 mg/kg
# [21] = SART stress mice, peroral 50 mg/kg, average of 30, 60, 90 and 120 minutes
# [22] = normal mice, peroral 50 mg/kg, average of 30, 60, 90 and 120 minutes
compound,measurement,setting,value
"COc1ccc(C2(c3ccc(OC)c(Cl)c3)NC(=O)NC2=O)cc1 (stereo not drawn) [Compound 2, 5-(3-chloro-4-methoxyphenyl)-5-(4-methoxyphenyl)hydantoin]",change in vivo at 100 mg/kg,[1]; [9],139%
same,change in vivo at 100 mg/kg,[1]; [10],90.7%
same,change in vivo at 100 mg/kg,[1]; [11],70%
same,change in vivo at 160 mg/kg,[1]; [12],88.2%
same,change in vivo at 100 mg/kg,[1]; [13],37.3%
same,change in vivo at 160 mg/kg,[1]; [14],50.2%
same,Analgesic effect,[1]; [15],79.6%
same,Analgesic effect,[1]; [16],54.6%
same,Antiulcerogenic effect on Shay's ulcer (operative ulcer),Wistar-strain male rats; 100 mg/kg intraperitoneal,23.4%
same,Antiulcerogenic effect on Shay's ulcer (operative ulcer),Wistar-strain male rats; 150 mg/kg intraperitoneal,29.3%
same,Rate of antihypertension,[2]; 150 mg/Kg intraperitoneal,22.4%
same,inhibition in vivo at 75 mg/kg,dd-strain male mice [3],15.4%
same,inhibition in vivo at 150 mg/kg,dd-strain male mice [3]; 150 mg/kg intraperitoneal,36.6%
same,LD50 at 72 h,[4]; female,1540 mg/kg
same,LD50 at 72 h,[4]; male,1600 mg/kg
same,responders at 100 mg/kg,[5]; [17],50%
same,responders at 100 mg/kg,[5]; [18],30%
same,responders at 100 mg/kg,[5]; [19],30%
same,responders at 160 mg/kg,"[5]; po, SART stress mice",60%
same,responders at 100 mg/kg,[5]; [20],10%
same,responders at 160 mg/kg,"[5]; po, normal mice",30%
same,Inhibitory effect on spontaneous motor activities,dd-strain male mice [6]; 50 mg/kg intraperitoneal,39.8%
same,Inhibitory effect on spontaneous motor activities,dd-strain male mice [6]; 100 mg/kg intraperitoneal,50.1%
same,Inhibitory effect on spontaneous motor activities,dd-strain male mice [6]; 125 mg/kg intraperitoneal,56.3%
same,LD50 at 72 h,[7]; female,920 mg/kg
same,LD50 at 72 h,[7]; male,1000 mg/kg
same,inhibition in vivo at 100 mg/kg,[8]; SART stress mice,27.1%
same,inhibition in vivo at 100 mg/kg,[8]; normal mice,4.4%
same,change in vivo at 100 mg/kg,ddY-strain male mice,55.9%
same,change in vivo at 300 mg/kg,ddY-strain male mice,248%
same,Ach-induced contraction of the isolated deodedum,isolated duodenum; 10 mg/kg/day intraperitoneal,80 ± 13%
"O=C1NC(=O)C(c2ccc(O)cc2)(c2ccc(O)cc2)N1 [Compound 4, 5,5-Bis(4-hydroxyphenyl)hydantoin]",change in vivo at 100 mg/kg,[1]; [9],162%
same,change in vivo at 100 mg/kg,[1]; [10],41.6%
same,change in vivo at 100 mg/kg,[1]; [11],67.3%
same,change in vivo at 160 mg/kg,[1]; [12],90.5%
same,change in vivo at 100 mg/kg,[1]; [13],52.3%
same,change in vivo at 160 mg/kg,[1]; [14],68.2%
same,Analgesic effect,[1]; [15],88.2%
same,Analgesic effect,[1]; [21],56.8%
same,Analgesic effect,[1]; [16],36.1%
same,Analgesic effect,[1]; [22],38.8%
same,Antiulcerogenic effect on Shay's ulcer (operative ulcer),Wistar-strain male rats; 25 mg/kg intraperitoneal,26.4%
same,Antiulcerogenic effect on Shay's ulcer (operative ulcer),Wistar-strain male rats; 50 mg/kg intraperitoneal,38.0%
same,Antiulcerogenic effect on Shay's ulcer (operative ulcer),Wistar-strain male rats; 100 mg/kg intraperitoneal,50.0%
same,Antiulcerogenic effect on Shay's ulcer (operative ulcer),Wistar-strain male rats; 150 mg/kg intraperitoneal,64.8%
same,Rate of antihypertension,[2]; 100 mg/Kg intraperitoneal,21.5%
same,Rate of antihypertension,[2]; 150 mg/Kg intraperitoneal,34.1%
same,Rate of antihypertension,[2]; 300 mg/Kg intraperitoneal,45.7%
same,inhibition in vivo at 25 mg/kg,dd-strain male mice [3]; 25 mg/kg intraperitoneal,14.2%
same,inhibition in vivo at 75 mg/kg,dd-strain male mice [3],39.1%
same,inhibition in vivo at 125 mg/kg,dd-strain male mice [3],53%
same,LD50 at 72 h,[4]; female,1320 mg/kg
same,LD50 at 72 h,[4]; male,1370 mg/kg
same,responders at 100 mg/kg,[5]; [17],60%
same,responders at 100 mg/kg,[5]; [18],40%
same,responders at 100 mg/kg,[5]; [19],50%
same,responders at 160 mg/kg,"[5]; po, SART stress mice",60%
same,responders at 100 mg/kg,[5]; [20],20%
same,responders at 160 mg/kg,"[5]; po, normal mice",40%
same,Analgesic effect,[5]; SART stress mice,40%
same,Analgesic effect,[5]; normal mice,10%
same,Inhibitory effect on spontaneous motor activities,dd-strain male mice [6]; 50 mg/kg intraperitoneal,42.4%
same,Inhibitory effect on spontaneous motor activities,dd-strain male mice [6]; 75 mg/kg intraperitoneal,52.2%
same,Inhibitory effect on spontaneous motor activities,dd-strain male mice [6]; 100 mg/kg intraperitoneal,61.4%
same,LD50 at 72 h,[7]; female,980 mg/kg
same,LD50 at 72 h,[7]; male,1060 mg/kg
same,inhibition in vivo at 100 mg/kg,[8]; SART stress mice,33.6%
same,inhibition in vivo at 100 mg/kg,[8]; normal mice,4.8%
same,Effect of prolongation of sleeping time,ddY-strain male mice; 20 mg/kg intraperitoneal,37.2%
same,Effect of prolongation of sleeping time,ddY-strain male mice; 50 mg/kg intraperitoneal,84.4%
same,change in vivo at 100 mg/kg,ddY-strain male mice,124%
same,Ach-induced contraction of the isolated deodedum,isolated duodenum; 5 mg/kg/day intraperitoneal,61 ± 16%
same,Ach-induced contraction of the isolated deodedum,isolated duodenum; 10 mg/kg/day intraperitoneal,95 ± 10%
"O=C1NC(=O)C(c2cc(O)c(O)c(O)c2)(c2cc(O)c(O)c(O)c2)N1 [Compound 36, 5,5-Bis(3,4,5-trihydroxyphenyl)hydantoin]",change in vivo at 100 mg/kg,[1]; [9],180%
same,change in vivo at 100 mg/kg,[1]; [10],67%
same,change in vivo at 100 mg/kg,[1]; [11],102%
same,change in vivo at 100 mg/kg,[1]; [13],49.9%
same,Analgesic effect,[1]; [15],120.5%
same,Analgesic effect,[1]; [21],63.3%
same,Analgesic effect,[1]; [16],44.0%
same,Analgesic effect,[1]; [22],40.3%
same,Antiulcerogenic effect on Shay's ulcer (operative ulcer),Wistar-strain male rats; 100 mg/kg intraperitoneal,30.1%
same,Antiulcerogenic effect on Shay's ulcer (operative ulcer),Wistar-strain male rats; 150 mg/kg intraperitoneal,43.9%
same,Rate of antihypertension,[2]; 150 mg/Kg intraperitoneal,19.8%
same,inhibition in vivo at 125 mg/kg,dd-strain male mice [3],31.2%
same,LD50 at 72 h,[4]; female,1020 mg/kg
same,LD50 at 72 h,[4]; male,1320 mg/kg
same,responders at 100 mg/kg,[5]; [17],60%
same,responders at 100 mg/kg,[5]; [18],40%
same,responders at 100 mg/kg,[5]; [19],30%
same,responders at 160 mg/kg,"[5]; po, SART stress mice",40%
same,responders at 100 mg/kg,[5]; [20],20%
same,responders at 160 mg/kg,"[5]; po, normal mice",30%
same,Inhibitory effect on spontaneous motor activities,dd-strain male mice [6]; 50 mg/kg intraperitoneal,37.8%
same,Inhibitory effect on spontaneous motor activities,dd-strain male mice [6]; 100 mg/kg intraperitoneal,49.1%
same,LD50 at 72 h,[7]; female,780 mg/kg
same,LD50 at 72 h,[7]; male,820 mg/kg
same,inhibition in vivo at 100 mg/kg,[8]; SART stress mice,29.4%
same,inhibition in vivo at 100 mg/kg,[8]; normal mice,8.2%
same,change in vivo at 100 mg/kg,ddY-strain male mice,11.3%
same,change in vivo at 300 mg/kg,ddY-strain male mice,46.7%
same,Ach-induced contraction of the isolated deodedum,isolated duodenum; 10 mg/kg/day intraperitoneal,83 ± 8%
